In ChEMBL document CHEMBL1123381, “Synthesis and antiviral evaluation of 1,4-dioxane nucleoside analogues related to nucleoside dialdehydes” (1986):
Active and inactive are the calls of the source. The calls are words filed in the database; no cut-off is given here.

Legend:
[1] = The compound was evaluated for cellular toxicity against [3H]thymidine incorporation into DNA of uninfected mouse L-cells; assay type: functional
Vaccinia virus [2] = assay: The compound was tested for inhibitory activity against vaccinia virus replication; NA=Not active; assay type: functional, organism-based; details: Orthopoxvirus vaccinia
Vaccinia virus [3] = assay: The compound was tested for inhibitory activity against vaccinia virus replication; assay type: functional; details: Orthopoxvirus vaccinia; read-out: ID50 (the source's name)

SMILES | [3H]thymidine incorporation, % of control [1] [%] | ID50 (Vaccinia virus [2]) | IC50 (Vaccinia virus [3]) [µM]
Nc1ncnc2c1ncn2C1COCC(CO)O1 (stereo not drawn) | 95 | inactive | –
Nc1ncnc2c1ncn2[C@@H](C=O)O[C@@H](C=O)CO | 8.3 | – | 0.3
Nc1nc(O)c2ncn(C3COCC(CO)O3)c2n1 (stereo not drawn) | 99 | inactive | –
C=C(CO)OC(=C)n1cnc2c(N)ncnc21 | 104 | – | 30
